Patent US20100222328A1, “2-CYCLOPROPYL-THIAZOLE DERIVATIVES” (priority 2007, published 2010)
Where two headings read alike, the source gives them in different places.

Columns and labels:
human orexin-1 receptor = target: T1, human orexin-1 receptor (Homo sapiens, UniProt O43613); experiment: Intracellular calcium measurements (FLIPR), CHO cells expressing the human orexin-1 receptor, orexin-A as agonist; type: cell-based; conditions: 3 nM orexin-A, read-out: OX1 IC50
T1 construct: expressed in transfected cells; host or cells: CHO cells (grown under G418 selection)
T1 sequence (O43613 1-425): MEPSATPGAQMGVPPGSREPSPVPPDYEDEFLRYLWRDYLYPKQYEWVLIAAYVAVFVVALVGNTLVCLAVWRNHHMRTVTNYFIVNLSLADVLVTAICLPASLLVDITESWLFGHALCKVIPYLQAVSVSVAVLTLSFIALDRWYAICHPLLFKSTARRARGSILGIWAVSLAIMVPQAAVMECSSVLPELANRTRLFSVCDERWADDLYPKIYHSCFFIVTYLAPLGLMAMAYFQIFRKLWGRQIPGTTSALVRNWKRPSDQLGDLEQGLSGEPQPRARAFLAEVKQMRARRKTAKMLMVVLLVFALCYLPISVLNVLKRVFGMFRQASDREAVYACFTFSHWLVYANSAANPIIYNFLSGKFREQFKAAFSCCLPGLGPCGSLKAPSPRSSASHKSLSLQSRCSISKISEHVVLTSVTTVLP
Protocol: (§1) The orexin receptor antagonistic activity of the compounds of formula (I) is determined in accordance with the following experimental method.
(§2) Chinese hamster ovary (CHO) cells expressing the human orexin-1 receptor and the human orexin-2 receptor, respectively, are grown in culture medium (Ham F-12 with L-Glutamine) containing 300 μg/ml G418, 100 U/ml penicillin, 100 μg/ml streptomycin and 10% heat inactivated fetal calf serum (FCS). The cells are seeded at 20′000 cells/well into 384-well black clear bottom sterile plates (Greiner). The seeded plates are incubated overnight at 37° C. in 5% CO2.
(§3) Human orexin-A as an agonist is prepared as 1 mM stock solution in MeOH: water (1:1), diluted in HBSS containing 0.1% bovine serum albumin (BSA), NaHCO3: 0.375g/l and 20 mM HEPES for use in the assay at a final concentration of 3 nM.
(§4) Antagonists are prepared as 10 mM stock solution in DMSO, then diluted in 384-well plates using DMSO followed by a transfer of the dilutions into in HBSS containing 0.1% bovine serum albumin (BSA), NaHCO3: 0.375 g/l and 20 mM HEPES. On the day of the assay, 50 μl of staining buffer (HBSS containing 1% FCS, 20 mM HEPES, NaHCO3: 0.375 g/l, 5 mM probenecid (Sigma) and 3 μM of the fluorescent calcium indicator fluo-4 AM (1 mM stock solution in DMSO, containing 10% pluronic) is added to each well. The 384-well cell-plates are incubated for 50 min at 37° C. in 5% CO2 followed by equilibration at rt for 30-120 min before measurement.
(§5) Within the Fluorescent Imaging Plate Reader (FLIPR2 or FLIPR Tetra, Molecular Devices), antagonists are added to the plate in a volume of 10 μl/well, incubated for 10 min and finally 10 μl/well of agonist is added. Fluorescence is measured for each well at 1 second intervals, and the height of each fluorescence peak is compared to the height of the fluorescence peak induced by 3 nM orexin-A with vehicle in place of antagonist. For each antagonist, the IC50 value (the concentration of compound needed to inhibit 50% of the agonistic response) is determined. The calculated IC50 values of the compounds may fluctuate depending on the daily cellular assay performance. Fluctuations of this kind are known to those skilled in the art.

human orexin-2 receptor = target: T2, human orexin-2 receptor (Homo sapiens, UniProt O43614); experiment: Intracellular calcium measurements (FLIPR), CHO cells expressing the human orexin-2 receptor, orexin-A as agonist; type: cell-based; conditions: 3 nM orexin-A, read-out: OX2 IC50
T2 construct: expressed in transfected cells; host or cells: CHO cells (grown under G418 selection)
T2 sequence (O43614 1-444): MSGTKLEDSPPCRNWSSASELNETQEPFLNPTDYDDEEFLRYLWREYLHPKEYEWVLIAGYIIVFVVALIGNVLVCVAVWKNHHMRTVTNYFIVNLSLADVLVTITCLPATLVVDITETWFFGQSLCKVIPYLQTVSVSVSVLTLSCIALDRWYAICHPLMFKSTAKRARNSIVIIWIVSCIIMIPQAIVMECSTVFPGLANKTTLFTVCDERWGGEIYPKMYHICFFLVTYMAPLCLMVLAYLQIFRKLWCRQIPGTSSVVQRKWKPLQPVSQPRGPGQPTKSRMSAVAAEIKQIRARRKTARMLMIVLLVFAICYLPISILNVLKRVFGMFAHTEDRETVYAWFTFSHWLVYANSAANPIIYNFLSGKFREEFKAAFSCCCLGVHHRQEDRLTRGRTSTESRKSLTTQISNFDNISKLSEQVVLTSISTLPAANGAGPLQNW
Protocol: as §1, §2, §3, §4, §5

Compound | IC50 (human orexin-1 receptor; measured on FLIPR Tetra) [nM] | IC50 (human orexin-2 receptor; measured on FLIPR Tetra) [nM] | IC50 (human orexin-1 receptor; measured on FLIPR2) [nM] | IC50 (human orexin-2 receptor; measured on FLIPR2) [nM]
Cc1cccc(-c2sc(C3CC3)nc2C(=O)N2CCCC[C@H]2CNC(=O)c2cccc3c2CCO3)c1 [Example 107, (S)-2,3-Dihydro-benzofuran-4-carboxylic acid [1-(2-cyclopropyl-5-m-tolyl-thiazole-4-carbonyl)-piperidin-2-ylmethyl]-amide] | 18 | 22 | – | –
O=C(NC[C@@H]1CCCCN1C(=O)c1nc(C2CC2)sc1-c1cccc(C(F)(F)F)c1)c1cccc(Br)c1 [Example 71, (S)-3-Bromo-N-{1-[2-cyclopropyl-5-(3-trifluoromethyl-phenyl)-thiazole-4-carbonyl]-piperidin-2-ylmethyl}-benzamide] | – | – | 7.2 | 26
Cn1nc(C(=O)NC[C@@H]2CCCCN2C(=O)c2nc(C3CC3)sc2-c2ccccc2)c2ccccc21 [Example 100, (S)-1-Methyl-1H-indazole-3-carboxylic acid [1-(2-cyclopropyl-5-phenyl-thiazole-4-carbonyl)-piperidin-2-ylmethyl]-amide] | 14 | 20 | – | –
Cc1nc2sccn2c1C(=O)NC[C@@H]1CCCCN1C(=O)c1nc(C2CC2)sc1-c1ccccc1F [Example 10, (S)-6-Methyl-imidazo[2,1-b]thiazole-5-carboxylic acid {1-[2-cyclopropyl-5-(2-fluoro-phenyl)-thiazole-4-carbonyl]-piperidin-2-ylmethyl}-amide] | – | – | 1.8 | 3
Cc1cccc(-c2sc(C3CC3)nc2C(=O)N2CCCC[C@H]2CNC(=O)c2cccc(F)c2C)c1 [Example 114, (S)—N-[1-(2-Cyclopropyl-5-m-tolyl-thiazole-4-carbonyl)-piperidin-2-ylmethyl]-3-fluoro-2-methyl-benzamide] | 15 | 19 | – | –
O=C(NC[C@@H]1CCCN1C(=O)c1nc(C2CC2)sc1-c1ccc(F)cc1)c1cccc2occc12 [Example 88, (S)-Benzofuran-4-carboxylic acid {1-[2-cyclopropyl-5-(4-fluoro-phenyl)-thiazole-4-carbonyl]-pyrrolidin-2-ylmethyl}-amide] | – | – | 23 | 15
Cc1cccc(C(=O)NC[C@@H]2CCCCN2C(=O)c2nc(C3CC3)sc2-c2ccccc2F)c1 [Example 1, (S)—N-{1-[2-Cyclopropyl-5-(2-fluoro-phenyl)-thiazole-4-carbonyl]-piperidin-2-ylmethyl}-3-methyl-benzamide] | – | – | 19 | 16
Cn1c(C(=O)NC[C@@H]2CCCCN2C(=O)c2nc(C3CC3)sc2-c2ccccc2)cc2occc21 [Example 131, (S)-4-Methyl-4H-furo[3,2-b]pyrrole-5-carboxylic acid [1-(2-cyclopropyl-5-phenyl-thiazole-4-carbonyl)-piperidin-2-ylmethyl]-amide] | 123 | 17 | – | –
O=C(NC[C@@H]1CCCCN1C(=O)c1nc(C2CC2)sc1-c1ccccc1F)c1cccc2cccnc12 [Example 5, (S)-Quinoline-8-carboxylic acid {1-[2-cyclopropyl-5-(2-fluoro-phenyl)-thiazole-4-carbonyl]-piperidin-2-ylmethyl}-amide] | – | – | 5.1 | 7.7
Cc1cccc(-c2sc(C3CC3)nc2C(=O)N2CCCC[C@H]2CNC(=O)c2cc3occc3n2C)c1 [Example 51, (S)-4-Methyl-4H-furo[3,2-b]pyrrole-5-carboxylic acid [1-(2-cyclopropyl-5-m-tolyl-thiazole-4-carbonyl)-piperidin-2-ylmethyl]-amide] | – | – | 25 | 15
O=C(NC[C@@H]1CCCCN1C(=O)c1nc(C2CC2)sc1-c1ccccc1)c1cnc2sccn12 [Example 96, (S)-Imidazo[2,1-b]thiazole-5-carboxylic acid [1-(2-cyclopropyl-5-phenyl-thiazole-4-carbonyl)-piperidin-2-ylmethyl]-amide] | 3.6 | 4.5 | – | –
O=C(NC[C@@H]1CCCCN1C(=O)c1nc(C2CC2)sc1-c1cccc(Cl)c1)c1noc2ccccc12 [Example 68, (S)-Benzo[d]isoxazole-3-carboxylic acid {1-[5-(3-chloro-phenyl)-2-cyclopropyl-thiazole-4-carbonyl]-piperidin-2-ylmethyl}-amide] | – | – | 19 | 11
Cc1ccc(-c2sc(C3CC3)nc2C(=O)N2CCCC[C@H]2CNC(=O)c2c(C)nc3sccn23)cc1 [Example 31, (S)-6-Methyl-imidazo[2,1-b]thiazole-5-carboxylic acid [1-(2-cyclopropyl-5-p-tolyl-thiazole-4-carbonyl)-piperidin-2-ylmethyl]-amide] | – | – | 2.2 | 8.6
